Data set [1] concerns the target T1, NRP1 (Homo sapiens, UniProt O14786).
T1 construct: Recombinant soluble NRP1 (sNRP1) protein containing His6 and c-Myc domain tags was synthesized in NIH-3T3 murine fibroblast cells; His6; c-Myc; made in house; host or cells: NIH-3T3 fibroblast cells, secreted into medium, purified on Ni-NTA
T1 sequence (O14786 22-644 isoform O14786-2 limits assumed): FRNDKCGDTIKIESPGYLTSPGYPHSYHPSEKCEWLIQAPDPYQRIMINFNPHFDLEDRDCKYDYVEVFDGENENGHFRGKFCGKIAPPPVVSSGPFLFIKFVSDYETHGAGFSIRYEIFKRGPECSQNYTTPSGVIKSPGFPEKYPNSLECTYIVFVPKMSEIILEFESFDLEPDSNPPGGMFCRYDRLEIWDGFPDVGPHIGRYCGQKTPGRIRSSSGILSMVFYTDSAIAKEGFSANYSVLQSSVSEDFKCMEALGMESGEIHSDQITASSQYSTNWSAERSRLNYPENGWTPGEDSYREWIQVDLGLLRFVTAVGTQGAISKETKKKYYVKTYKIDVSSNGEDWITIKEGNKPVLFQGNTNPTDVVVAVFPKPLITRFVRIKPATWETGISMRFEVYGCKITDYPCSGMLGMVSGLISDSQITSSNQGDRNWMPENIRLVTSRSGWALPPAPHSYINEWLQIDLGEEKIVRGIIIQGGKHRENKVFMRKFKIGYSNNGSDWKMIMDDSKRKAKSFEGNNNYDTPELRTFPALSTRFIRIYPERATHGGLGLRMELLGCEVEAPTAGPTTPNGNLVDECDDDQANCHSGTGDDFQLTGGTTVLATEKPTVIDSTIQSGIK
In words: Surface plasmon resonance (Biacore) binding of selected peptides to NRP1. The settings on record: 25° C., immobilized recombinant NRP1, read-out: ka. The protocol:
(§1) The binding kinetics of selected peptides with NRP1 were tested using the surface plasmon resonance based measuring system (Biacore AB) at 25° C. Recombinant NRP1 was immobilized on CM5 sensor chips by amine coupling at 400 response units using the amine coupling kit (Biacore) according to the manufacturer's instructions. Binding was detected in resonance units after injecting various concentrations of peptide at a flow rate of 30 μL/min. Sensograms of association and dissociation were recorded and analyzed using BIAevaluation software 3.0 (Biacore AB).
For orientation: Surface plasmon resonance follows binding to a sensor surface in real time, without labels.

Data set [2] has as its system CL1-5 cells. In words: Cytotoxicity / cell viability of peptide-treated cancer cells. The settings on record: peptide treatment of cancer cells. The class given is cell-based, human.
A further data set has as its system PI3K. In words: Phosphoinositide-3-kinase activity assay in CL1-5 cells. The settings on record: 48 h after transfection, 1.3 nmol/L VEGF165, vs nonsilencing siRNA. The class given is cell-based, human. How it is done: Phosphoinositide-3-kinase (PI3K) activities were assayed as described previously (Lin M T, et al., J Biol Chem 2001, 276: 48997-49002) with some modifications. In brief, CL1-5 cell extracts were incubated with the antiphosphotyrosine antibody and then precipitated with protein A-Sepharose. The immunocomplexes were preincubated with phosphatidylinositol-4,5-P2 (Sigma), and the kinase reaction was initiated by adding 10 μCi of [γ-^32P]ATP in reaction buffer for 15 min. Phospholipids were separated by TLC and visualized by phosphorimaging.

The subject of data set [3] is CL1-5 cells. In words: Scratch wound healing migration assay. The class given is cell-based, human. As to conditions: 24 h after scratch, 24 nmol/L siRNA. How it is done: Cell migration was measured by the in vitro scratch wound healing assay (Tamura M, et al., Science 1998, 280: 1614-1617). CL1-5 cells were transfected with 24 nmol/L siRNA-1 in 12-well plates. Twenty-four hours after transfection, cells were scratched with a yellow pipette tip and photographed 18, 21, and 24 h after the scratch. The cell migration at 0, 18, 21, and 24 h was evaluated by counting cells that had migrated from the wound edge.

The subject of data set [4] is NRP1. In words: NRP1 expression after siRNA transfection (Western blot). The class given is cell-based, human. The settings on record: CL1-5 cells transfected with siRNA. A general note: Immunoblotting shows a protein as a band on a membrane.
In data set [5] the test system is CL1-5 cells. In words: In vitro invasion assay (modified Boyden chamber, Matrigel). The settings on record: 48 h, Matrigel-coated Transwell. The class given is cell-based, human. The protocol:
A modified Boyden chamber system was used to investigate the invasive capability of CL cells treated with selected peptides, sNRP1, and siRNA of NRP1 (Chu Y W, et al., Am J Respir Cell Mol Biol 1997, 17: 353-360). The polycarbonate membranes (containing 8-μm pores) of Transwell inserts were coated with Matrigel. The cells were suspended in RPMI 1640 containing 10% NuSerum (Life Science), and 2.5×10^4 cells were placed into the upper well of each chamber. After incubation for 48 h at 37° C., the Transwell membrane was fixed with methanol for 10 min at room temperature and stained with a 50 μg/mL solution of propidium iodide (Sigma) for 30 min at room temperature. The number of cells in each membrane was counted under a microscope at a magnification of ×50 using the Analytical Imaging Station software package (Imaging Research Inc.). Each sample was assayed in triplicate.

A further data set concerns Akt. In words: VEGF165-induced Akt phosphorylation in CL1-5 cells (Western blot). The class given is cell-based, human. As to conditions: 1.3 nmol/L VEGF165, 10 nmol/L sNRP1.
A further data set has as its target T2, human VEGF165 (Homo sapiens, UniProt P15692).
T2 construct: purchased PeproTech, Inc
T2 sequence (P15692 27-191 isoform P15692-4): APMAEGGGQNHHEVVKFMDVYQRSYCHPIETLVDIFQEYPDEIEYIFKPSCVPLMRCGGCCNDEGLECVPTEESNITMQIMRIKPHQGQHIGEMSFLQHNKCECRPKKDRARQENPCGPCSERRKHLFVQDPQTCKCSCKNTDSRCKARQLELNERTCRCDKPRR
In words: Surface plasmon resonance binding of recombinant sNRP1 to VEGF165. The settings on record: read-out: average dissociation constant (KD) of human VEGF165 binding to sNRP1. The protocol:
as §1

The subject of another data set is VEGFR2. In words: VEGF165-induced VEGFR2 phosphorylation in CL1-5 cells (immunoprecipitation / Western blot). The class given is cell-based, human. The protocol: VEGFR2 phosphorylation was assessed as previously described (Soker S, et al., J Cell Biochem 2002, 85:357-368). Briefly, CL1-5 cells were treated with a mixture of hVEGF and sNRP1 for 30 min on ice and then at 37° C. for 7 min. Cell lysates were immunoprecipitated with anti-VEGFR2 antibodies. For Western blotting, the membranes were first probed with anti-Flk-1 antibodies and then reprobed with anti-phospho-VEGFR2 antibodies 2/3(pc460) after being stripped with deblotting buffer. In the antiangiogenesis assay, HUVECs were pretreated with peptides for 10 min followed by treatment with VEGF for 5 min, and the cells were then immediately extracted with lysis buffer. Activation of Flk-1/KDR was determined by immunoblotting cell extracts with anti-Flk-1 antibodies and then reprobing with anti-phospho-VEGFR2 antibodies (pTyr^1214) after the membranes had been stripped with deblotting buffer.

Data set [6] has as its system CL1-5 cells. In words: Filamentous actin staining (rhodamine-phalloidin). The class given is cell-based, human. How it is done: For filamentous actin (F-actin) staining, cells were seeded on coverslips in 24-well plates and allowed to attach for 24 h in medium containing 10% FCS. The cells were fixed, washed, and permeabilized in 0.1% Triton-X. The cells were incubated for 30 min with 5 units/mL of rhodamine-conjugated phalloidin (Molecular Probe) and mounted using Fluor Save reagent (Calbiochem). The slides were analyzed using a Zeiss Axioplan 2 microscope.

Entries after “also recorded” stand apart in the source; their conditions may differ. Where a SMILES comes first, the peptide text is derived from it. Bridges are numbered along the chain shown (N, C = ends).

In the case of `CSCC[C@@H]1NC(=O)[C@H](CCCNC(=N)N)NC(=O)[C@@H]2CCCN2C(=O)[C@H](CCCNC(=N)N)NC(=O)[C@H](CCCNC(=N)N)NC(=O)[C@@H](N)CSSC[C@@H](C(=O)O)NC(=O)[C@H]([C@@H](C)O)NC(=O)[C@H](CC(C)C)NC1=O` [DG1, CRRPRMLTC] (H-CRRPRMLTC-OH; disulfide 1-9; N-terminus and C-terminus assumed), the kon at NRP1 [1] is 1230 M⁻¹ s⁻¹. Besides, the “cytotoxicity / cell viability” value with CL1-5 cells [2] is “without affecting cell viability; also recorded: not cytotoxic”.

With `CC[C@H](C)[C@@H]1NC(=O)[C@H](CCCNC(=N)N)NC(=O)[C@H](CCCNC(=N)N)NC(=O)[C@H](CO)NC(=O)[C@H](CCCNC(=N)N)NC(=O)[C@@H](N)CSSC[C@@H](C(=O)O)NC(=O)[C@H](CC(C)C)NC(=O)[C@H](CCCNC(=N)N)NC1=O` [DG2, CRSRRIRLC] (H-CRSRRIRLC-OH; disulfide 1-9; N-terminus and C-terminus assumed), the kon at NRP1 [1] is 123 ± 24 M⁻¹ s⁻¹. In the data set with CL1-5 cells [2], the “cytotoxicity / cell viability” value is “not cytotoxic”.

AACACCTAGTGGAGTGATAAA [siRNA-1]: in the data set with PI3K, the “VEGF165-induced PI3K activation” value is recorded as “decreased”. Further, the “migration of CL1-5 cells” value in the data set with CL1-5 cells [3] was “significantly inhibited”. For the same compound, in the data set on NRP1 [4], the NRP1 expression entry is reported as “Significant suppression”. In addition, the “invasion ability of CL1-5 cells (in words)” value (“invasion ability” for short) in the data set on CL1-5 cells [5] is “decreased the invasion ability of CL1-5 cells in a dose-dependent manner”.

For the compound AACAGCCTTGAATGCACTTAT [siRNA-2], the NRP1 expression entry with NRP1 [4] is “Significant suppression”. In addition, the “invasion ability” value in the data set on CL1-5 cells [5] is on record as “decreased the invasion ability of CL1-5 cells in a dose-dependent manner”.

In general, Kd refers to the equilibrium constant for the complex coming apart. As for “sNRP1: Recombinant soluble NRP1 protein containing His6 and c-Myc domain tags, synthesized in NIH-3T3 cells”, the “VEGF165-induced phosphorylation of Akt at Ser473” value in the data set with Akt was “decreased to less than one third”. For the same compound, in the data set with human VEGF165, the Kd is 125 nM. For the same compound, the “VEGF165-induced VEGFR2 activation” value in the data set with VEGFR2 (VEGF165 plus sNRP1) was “decreased by sNRP1 in a dose-dependent manner”; in the data set on VEGFR2 (high concentrations of sNRP1), “totally blocked”. The “F-actin polymerization and filopodia formation” value in the data set with CL1-5 cells [6] is “inhibited F-actin polymerization and filopodia formation”. The “invasion ability” value with CL1-5 cells [5] is given as “dose-dependent decrease”.

Values taken from patent US8450283B2, “Composition for treating cancer and use thereof” (National Taiwan University, priority 2008, dated 2013).
